By IC50 is commonly meant the concentration at which inhibition is half-maximal. Read a high IC50 as weaker potency. Usually Ki stands for a measure of affinity in units of concentration, obtained from inhibition or displacement. A higher Ki goes with weaker binding.

Series [1] deals with T1, CYP2D6 (Homo sapiens, UniProt P10635). The conditions noted are these: HLM; as compared to quinidine.
Series [2] addresses T1, CYP2D6. Description: biochemical.
A further series deals with T2, CYP2C8 (Homo sapiens, UniProt P10632).
T2 sequence (P10632 1-490): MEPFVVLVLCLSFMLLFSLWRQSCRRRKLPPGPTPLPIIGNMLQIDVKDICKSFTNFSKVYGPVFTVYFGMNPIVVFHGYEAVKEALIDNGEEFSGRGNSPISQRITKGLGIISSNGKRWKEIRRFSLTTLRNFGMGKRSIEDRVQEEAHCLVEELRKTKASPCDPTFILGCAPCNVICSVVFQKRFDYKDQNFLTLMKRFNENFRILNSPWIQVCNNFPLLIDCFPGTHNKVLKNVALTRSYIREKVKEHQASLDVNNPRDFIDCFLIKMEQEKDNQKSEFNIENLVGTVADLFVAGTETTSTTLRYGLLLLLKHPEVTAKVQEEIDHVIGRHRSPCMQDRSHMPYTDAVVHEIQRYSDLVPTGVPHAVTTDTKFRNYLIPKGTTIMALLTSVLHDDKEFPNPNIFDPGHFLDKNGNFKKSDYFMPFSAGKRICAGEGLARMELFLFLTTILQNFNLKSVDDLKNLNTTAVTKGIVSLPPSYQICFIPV
In words: CYP2C8 activity inhibition assay in human liver microsomes (paclitaxel hydroxylation, LC-MS/MS). To be noted: for IC50: IC50 CYP2C8, HLM, paclitaxel 5 µM. On the technique in general: Liver microsomes are a subcellular fraction often used to study metabolism.

In a further series the target is CYP3A4 (Homo sapiens, UniProt P08684). In words: CYP3A4 activity inhibition assay in human liver microsomes (testosterone 6β-hydroxylation, LC-MS/MS).
Sequence of CYP3A4 (P08684 whole entry): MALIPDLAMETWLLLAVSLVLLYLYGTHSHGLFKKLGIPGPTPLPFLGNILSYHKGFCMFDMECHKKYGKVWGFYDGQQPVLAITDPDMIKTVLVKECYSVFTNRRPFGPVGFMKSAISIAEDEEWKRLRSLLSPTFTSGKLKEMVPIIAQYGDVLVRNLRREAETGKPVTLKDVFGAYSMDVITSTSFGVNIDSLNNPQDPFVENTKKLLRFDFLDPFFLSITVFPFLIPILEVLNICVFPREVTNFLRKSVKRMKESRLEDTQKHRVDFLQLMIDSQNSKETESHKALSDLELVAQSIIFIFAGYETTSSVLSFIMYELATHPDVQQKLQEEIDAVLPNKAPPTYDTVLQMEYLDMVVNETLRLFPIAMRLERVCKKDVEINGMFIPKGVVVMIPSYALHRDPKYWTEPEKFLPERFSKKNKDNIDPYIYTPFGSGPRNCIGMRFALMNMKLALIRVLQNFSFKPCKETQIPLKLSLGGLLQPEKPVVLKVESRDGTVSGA

T1 sequence (P10635 whole entry): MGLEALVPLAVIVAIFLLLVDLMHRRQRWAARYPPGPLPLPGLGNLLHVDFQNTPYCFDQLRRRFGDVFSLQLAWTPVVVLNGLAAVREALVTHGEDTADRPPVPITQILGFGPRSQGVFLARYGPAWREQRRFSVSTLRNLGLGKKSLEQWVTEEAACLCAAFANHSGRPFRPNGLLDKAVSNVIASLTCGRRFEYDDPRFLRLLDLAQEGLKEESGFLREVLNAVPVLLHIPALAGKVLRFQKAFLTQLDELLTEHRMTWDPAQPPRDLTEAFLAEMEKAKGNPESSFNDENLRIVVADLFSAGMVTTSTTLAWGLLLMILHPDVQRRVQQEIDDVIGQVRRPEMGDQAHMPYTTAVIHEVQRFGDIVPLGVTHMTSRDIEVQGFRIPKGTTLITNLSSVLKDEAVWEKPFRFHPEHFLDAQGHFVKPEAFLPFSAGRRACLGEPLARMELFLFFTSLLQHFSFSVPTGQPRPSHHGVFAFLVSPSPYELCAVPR

Take `CCC(CC)COC(=O)[C@H](C)N[P@](=O)(OC[C@H]1O[C@@](C#N)(c2ccc3c(N)ncnn23)[C@H](O)[C@@H]1O)Oc1ccccc1` [Remdesivir, remdesivir]: the “inhibition of CYP2D6 (in words)” value on CYP2D6 [1] is “weak inhibition”. Besides, the results for the IC50 against CYP2D6 [2], against CYP2C8 (remdesivir) and at CYP3A4 were 543 nM, 268 nM and 483 nM, respectively. Also, the Ki at CYP2D6 [2] was 271 nM; at CYP2C8 it was 134 nM; at CYP3A4, 241 nM. Besides, at CYP2C8 (HLM, remdesivir as compared to rosiglitazone), the “inhibition of CYP2C8 (in words)” value is reported as “weak inhibition”. Further, at CYP3A4 (HLM, as compared to ketoconazole), the “inhibition of CYP3A4 (in words)” value was “moderate/weak inhibition”.

At CYP2C8, `CN(CCOc1ccc(CC2SC(=O)NC2=O)cc1)c1ccccn1` (centres unmarked) [Rosiglitazone, rosiglitazone] returned a Ki of 1600 nM. Half-maximal inhibition at CYP2C8 (positive control) (IC50) required 3280 nM.

The record behind these values is publication PMC9597875 (Frontiers in Pharmacology, 2022).
